{"source": "paper PMC5743546", "about": "(Biochemistry, 2017)", "molecules": {"B1": {"name": "CYP2J2 (Homo sapiens) (protein)", "chain": "MLAAMGSLAAALWAVVHPRTLLLGTVAFLLAADFLKRRRPKNYPPGPWRLPFLGNFFLVDFEQSHLEVQLFVKKYGNLFSLELGDISAVLITGLPLIKEALIHMDQNFGNRPVTPMREHIFKKNGLIMSSGQAWKEQRRFTLTALRNFGLGKKSLEERIQEEAQHLTEAIKEENGQPFDPHFKINNAVSNIICSITFGERFEYQDSWFQQLLKLLDEVTYLEASKTCQLYNVFPWIMKFLPGPHQTLFSNWKKLKLFVSHMIDKHRKDWNPAETRDFIDAYLKEMSKHTGNPTSSFHEENLICSTLDLFFAGTETTSTTLRWALLYMALYPEIQEKVQAEIDRVIGQGQQPSTAARESMPYTNAVIHEVQRMGNIIPLNVPREVTVDTTLAGYHLPKGTMILTNLTALHRDPTEWATPDTFNPDHFLENGQFKKREAFMPFSIGKRACLGEQLARTELFIFFTSLMQKFTFRPPNNEKLSLKFRMGITISPVSHRLCAVPQV"}}, "key": {"[1]": {"target": "T1, CYP2J2 (Homo sapiens, UniProt P51589)", "T1 sequence (P51589 1-502)": "B1 chain", "assay": "biochemical", "settings": "for y0 (residual rate of AA epoxidation at maximum inhibition): fit to eq S1"}, "[2]": {"target": "T1, CYP2J2", "format": "binding"}, "[3]": {"target": "T1, CYP2J2"}, "[4]": {"target": "T1, CYP2J2", "remark": "listed apart in the source"}, "[5]": {"target": "T1, CYP2J2", "assay": "CYP2J2-mediated ebastine", "format": "biochemical"}, "[6]": {"settings": "cited from earlier work"}, "[7]": {"target": "T1, CYP2J2", "assay": "DOX metabolism kinetics by CPR and CYP2J2", "settings": "none detected by LC-MS/MS analysis"}, "[8]": {"substrate": "COc1cccc2c1C(=O)c1c(O)c3c(c(O)c1C2=O)C[C@@](O)(C(=O)CO)C[C@@H]3O[C@H]1C[C@H](N)[C@H](O)[C@H](C)O1", "assay": "purified protein, by the assay type", "settings": "other: CPR with CYP2J2; hyperbolic curve"}}, "note": "Read-outs that look alike come from different tables or passages of the source.", "data": [{"molecule": "COc1cccc2c1C(=N)c1c(O)c3c(c(O)c1C2=O)C[C@@](O)(C(C)=O)C[C@@H]3O[C@H]1C[C@H](N)[C@H](O)[C@H](C)O1", "note": "[5-IDN, 5-iminodaunorubicin]", "values": [{"measurement": "IC50", "setting": "[1]", "value": "27.4 ± 0.03", "unit": "µM"}, {"measurement": "Ki", "setting": "[1]", "value": "15.6 ± 0.02", "unit": "µM"}]}, {"molecule": "COc1cccc2c1C(=O)c1c(O)c3c(c(O)c1C2=O)CC(O)(C(=O)CO)CC3", "note": "(stereo not drawn) [7-de-aDOX, 7-deoxydoxorubicin aglycone]", "values": [{"measurement": "Kd", "setting": "[2]", "value": "13.1 ± 1.1", "unit": "µM"}, {"measurement": "metabolism by CYP2J2 to form new products (in words)", "setting": "[3]", "value": "does not metabolize"}, {"measurement": "IC50", "setting": "[1]", "value": "10.2 ± 0.1", "unit": "µM"}, {"measurement": "Ki", "setting": "[1]", "value": "5.78 ± 0.03", "unit": "µM"}, {"measurement": "NADPH oxidation on addition of CYP2J2 (in words)", "setting": "[4]", "value": "does not increase"}]}, {"molecule": "CCCCC/C=C\\C/C=C\\C/C=C\\C/C=C\\CCCC(=O)O", "note": "[AA, arachidonic acid]", "values": [{"measurement": "Ki", "setting": "[2]", "value": "> 200", "unit": "µM"}, {"measurement": "inhibition of DOX binding to CYP2J2 (in words)", "setting": "[2]; 100 μM AA, 1 μM DOX", "value": "weakly inhibits"}]}, {"molecule": "COc1cccc2c1C(=O)c1c(O)c3c(c(O)c1C2=O)C[C@@](O)(C(=O)CO)C[C@@H]3O[C@H]1C[C@H](N)[C@H](O)[C@H](C)O1", "note": "[DOX, doxorubicin]", "values": [{"measurement": "Kd", "setting": "[2]", "value": "5.32 ± 0.89", "unit": "µM"}, {"measurement": "r0 (intrinsic polarization value)", "setting": "[2]; 1 μM DOX or 7-de-aDOX, 37°C, with 100 μM AA or 60 μM EBS where indicated", "value": "0.083 ± 0.007"}, {"measurement": "r1 (maximum polarization value)", "setting": "[2]; 1 μM DOX or 7-de-aDOX, one-site fit", "value": "0.219 ± 0.010"}, {"measurement": "IC50", "setting": "[5]", "value": 17.9, "unit": "µM"}, {"measurement": "Ki", "setting": "[5]", "value": "8.97 ± 0.01", "unit": "µM"}, {"measurement": "y0 (residual rate of EBS metabolism)", "setting": "[5]; 20 μM EBS, fit to eq S1", "value": "5.87 ± 2.84"}, {"measurement": "IC50", "setting": "[1]", "value": "5.48 ± 0.04", "unit": "µM"}, {"measurement": "Ki", "setting": "[1]", "value": "3.11 ± 0.02", "unit": "µM"}, {"measurement": "enzyme activity retained in the presence of saturating amounts", "setting": "[1]; 100 μM AA", "value": 23, "unit": "%"}, {"measurement": "y0 (residual rate of AA epoxidation at maximum inhibition)", "setting": "[1]; 100 μM AA", "value": "19.8 ± 3.8 pmol (min)^−1 (nmolCYP2J2)^−1"}, {"measurement": "plasma levels upon immediate exposure", "setting": "[6]", "value": "1000 to 10000", "unit": "nM"}, {"measurement": "toxic cumulative dose", "setting": "[6]", "value": "~ 50 μM"}, {"measurement": "metabolism by CYP2J2 to form new products (in words)", "setting": "[7]", "value": "does not metabolize"}]}, {"molecule": "COc1cccc2c1C(=O)c1c(O)c3c(c(O)c1C2=O)C[C@@](O)(/C(C)=N/NC(=O)c1ccccc1)C[C@@H]3O[C@H]1C[C@H](N)[C@H](O)[C@H](C)O1", "note": "[ZRN, zorubicin]", "values": [{"measurement": "IC50", "setting": "[1]", "value": "6.46 ± 0.03", "unit": "µM"}, {"measurement": "Ki", "setting": "[1]", "value": "3.67 ± 0.02", "unit": "µM"}, {"measurement": "change in the regioselectivity of AA epoxidation (in words)", "setting": "[1]; 100 μM AA, 0–50 μM anthracycline", "value": "not a significant change"}, {"measurement": "y0 (residual rate of AA epoxidation at maximum inhibition)", "setting": "[1]; 100 μM AA", "value": "18.7 ± 3.5 pmol (min)^−1 (nmolCYP2J2)^−1"}]}, {"molecule": "B1", "values": [{"measurement": "Km", "setting": "[8]", "value": "10.4 ± 1.6", "unit": "µM"}]}]}
